Measured values published in article PMC11173485, “Connecting GSK-3β Inhibitory Activity with IKK-β or ROCK-1 Inhibition to Target Tau Aggregation and Neuroinflammation in Alzheimer’s Disease—Discovery, In Vitro and In Cellulo Activity of Thiazole-Based Inhibitors” (Molecules, 2024).
Read-outs that look alike come from different tables or passages of the source.

Assays:
[1] = target: T1, ROCK-1 (Homo sapiens, UniProt Q13464); experiment: ADP-Glo kinase assay, ROCK-1 inhibition; format: biochemical; conditions: for inhibition at 10 µM: read-out: % inh. at 10 µM ROCK-1
T1 construct: purchased Promega
Text: (§1) We evaluated the inhibitory activity of the final compounds against GSK-3β, IKK-β, and ROCK-1 kinases using the commercially available ADP-Glo™ kinase assay. The method was based on the measurement of luminescence that correlates with kinase activity. […] The latter are inhibitors of the kinases of interest and were integral to the design of our studies.
Promega’s Kinase Enzyme Systems (Promega; Madison, WI, USA) were used to determine the activities of the tested compounds against the human recombinant kinases GSK-3β, IKK- β, and ROCK-1. The assays were performed according to the provided manufacturer’s instruction, based on the optimized conditions of the enzymatic reactions, using the low-volume, white polystyrene, 384-well plates. The ADP-Glo™ Assay (Promega; Madison, WI, USA) was used for bioluminescent detection of the kinase activity. Stock solutions of the tested compounds in DMSO (1mM) were diluted with the Kinase Assay Buffer before use (40 mM Tris, pH 7.5, enriched with 50 µM dithiothreitol; DTT), giving the final desired concentrations. The kinase enzymes, substrates, and ATP solutions were also diluted with the assay buffer prior to use. The GSK-3β, IKK-β, and ROCK-1 substrates were derived from human muscle glycogen synthase 1, human IkBA, and human 40S ribosomal protein S6, respectively. […] The DMSO solution (1% in well) was used in the blank samples instead of the tested inhibitors. After the incubation period, ATP (25 µM per well in the case of GSK-3β and IKK-β kinases; 5 µM per well in the case of ROCK-1 kinase) and an appropriate enzyme substrate (0.2 µg/µL in well) were added to start the enzymatic reaction. The reaction mixture was kept at room temperature for 1 h; then, the ADP-Glo™ reagent was added, to terminate the kinase reaction and deplete any remaining ATP. After 40 min, a second reagent (Kinase Detection Reagent) was applied to convert the obtained ADP to ATP and to generate light from the newly synthesized ATP using a luciferase/luciferin reaction. The mixture was incubated for another 30 min at room temperature before the luminescence was measured. The calculations of the percent of kinases’ inhibition by tested compounds were based on the equation 100 − (S/B) × 100; S and B are the enzyme activities with and without the tested sample, respectively. […]. IC50 results were obtained using nonlinear regression (GraphPad Prism 9; GraphPad Software, San Diego, CA, USA) by plotting the residual enzyme activities against the applied inhibitor concentration. Each compound was evaluated in two independent experiments, with every data point collected in duplicate.

[2] = target: T2, IKK-β (Homo sapiens, UniProt O14920); experiment: ADP-Glo kinase assay, IKK-β inhibition; format: biochemical; conditions: for IC50: mean ± SEM, ATP 25 µM; for inhibition at 10 µM: mean ± SD, read-out: % inh. at 10 µM IKK-β
T2 construct: purchased Promega
T2 sequence (O14920 1-756): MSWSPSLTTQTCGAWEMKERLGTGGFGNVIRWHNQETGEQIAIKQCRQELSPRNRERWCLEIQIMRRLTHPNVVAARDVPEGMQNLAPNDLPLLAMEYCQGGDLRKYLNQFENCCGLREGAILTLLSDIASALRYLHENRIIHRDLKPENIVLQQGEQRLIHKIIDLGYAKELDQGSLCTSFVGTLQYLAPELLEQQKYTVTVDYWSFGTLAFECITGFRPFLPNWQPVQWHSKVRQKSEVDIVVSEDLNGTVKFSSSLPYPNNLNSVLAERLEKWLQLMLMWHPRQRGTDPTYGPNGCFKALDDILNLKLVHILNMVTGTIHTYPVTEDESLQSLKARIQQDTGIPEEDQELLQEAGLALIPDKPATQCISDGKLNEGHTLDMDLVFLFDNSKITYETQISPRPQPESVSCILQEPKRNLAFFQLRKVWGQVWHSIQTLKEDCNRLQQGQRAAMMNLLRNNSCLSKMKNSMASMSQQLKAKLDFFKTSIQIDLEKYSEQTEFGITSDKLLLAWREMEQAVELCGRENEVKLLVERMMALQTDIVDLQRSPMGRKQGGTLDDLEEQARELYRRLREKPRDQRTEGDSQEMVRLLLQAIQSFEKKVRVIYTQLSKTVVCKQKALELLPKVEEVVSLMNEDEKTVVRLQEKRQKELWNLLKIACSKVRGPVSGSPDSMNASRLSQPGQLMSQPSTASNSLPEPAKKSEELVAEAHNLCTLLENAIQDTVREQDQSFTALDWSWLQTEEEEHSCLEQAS
Text: as §1
Promega’s Kinase Enzyme Systems (Promega; Madison, WI, USA) were used to determine the activities of the tested compounds against the human recombinant kinases GSK-3β, IKK- β, and ROCK-1. The assays were performed according to the provided manufacturer’s instruction, based on the optimized conditions of the enzymatic reactions, using the low-volume, white polystyrene, 384-well plates. The ADP-Glo™ Assay (Promega; Madison, WI, USA) was used for bioluminescent detection of the kinase activity. Stock solutions of the tested compounds in DMSO (1mM) were diluted with the Kinase Assay Buffer before use (40 mM Tris, pH 7.5, enriched with 50 µM dithiothreitol; DTT), giving the final desired concentrations. The kinase enzymes, substrates, and ATP solutions were also diluted with the assay buffer prior to use. The GSK-3β, IKK-β, and ROCK-1 substrates were derived from human muscle glycogen synthase 1, human IkBA, and human 40S ribosomal protein S6, respectively. The assay procedure was as follows: At first, the appropriate kinase enzyme (GSK-3β: 10 ng per well; IKK-β: 45 ng per well; ROCK-1: 24 ng per well) was incubated with the tested sample (10 µM in well) for 5 min. The DMSO solution (1% in well) was used in the blank samples instead of the tested inhibitors. After the incubation period, ATP (25 µM per well in the case of GSK-3β and IKK-β kinases; 5 µM per well in the case of ROCK-1 kinase) and an appropriate enzyme substrate (0.2 µg/µL in well) were added to start the enzymatic reaction. The reaction mixture was kept at room temperature for 1 h; then, the ADP-Glo™ reagent was added, to terminate the kinase reaction and deplete any remaining ATP. After 40 min, a second reagent (Kinase Detection Reagent) was applied to convert the obtained ADP to ATP and to generate light from the newly synthesized ATP using a luciferase/luciferin reaction. The mixture was incubated for another 30 min at room temperature before the luminescence was measured. The calculations of the percent of kinases’ inhibition by tested compounds were based on the equation 100 − (S/B) × 100; S and B are the enzyme activities with and without the tested sample, respectively. […] Each compound was evaluated in two independent experiments, with every data point collected in duplicate.

T1 sequence (Q13464 whole entry): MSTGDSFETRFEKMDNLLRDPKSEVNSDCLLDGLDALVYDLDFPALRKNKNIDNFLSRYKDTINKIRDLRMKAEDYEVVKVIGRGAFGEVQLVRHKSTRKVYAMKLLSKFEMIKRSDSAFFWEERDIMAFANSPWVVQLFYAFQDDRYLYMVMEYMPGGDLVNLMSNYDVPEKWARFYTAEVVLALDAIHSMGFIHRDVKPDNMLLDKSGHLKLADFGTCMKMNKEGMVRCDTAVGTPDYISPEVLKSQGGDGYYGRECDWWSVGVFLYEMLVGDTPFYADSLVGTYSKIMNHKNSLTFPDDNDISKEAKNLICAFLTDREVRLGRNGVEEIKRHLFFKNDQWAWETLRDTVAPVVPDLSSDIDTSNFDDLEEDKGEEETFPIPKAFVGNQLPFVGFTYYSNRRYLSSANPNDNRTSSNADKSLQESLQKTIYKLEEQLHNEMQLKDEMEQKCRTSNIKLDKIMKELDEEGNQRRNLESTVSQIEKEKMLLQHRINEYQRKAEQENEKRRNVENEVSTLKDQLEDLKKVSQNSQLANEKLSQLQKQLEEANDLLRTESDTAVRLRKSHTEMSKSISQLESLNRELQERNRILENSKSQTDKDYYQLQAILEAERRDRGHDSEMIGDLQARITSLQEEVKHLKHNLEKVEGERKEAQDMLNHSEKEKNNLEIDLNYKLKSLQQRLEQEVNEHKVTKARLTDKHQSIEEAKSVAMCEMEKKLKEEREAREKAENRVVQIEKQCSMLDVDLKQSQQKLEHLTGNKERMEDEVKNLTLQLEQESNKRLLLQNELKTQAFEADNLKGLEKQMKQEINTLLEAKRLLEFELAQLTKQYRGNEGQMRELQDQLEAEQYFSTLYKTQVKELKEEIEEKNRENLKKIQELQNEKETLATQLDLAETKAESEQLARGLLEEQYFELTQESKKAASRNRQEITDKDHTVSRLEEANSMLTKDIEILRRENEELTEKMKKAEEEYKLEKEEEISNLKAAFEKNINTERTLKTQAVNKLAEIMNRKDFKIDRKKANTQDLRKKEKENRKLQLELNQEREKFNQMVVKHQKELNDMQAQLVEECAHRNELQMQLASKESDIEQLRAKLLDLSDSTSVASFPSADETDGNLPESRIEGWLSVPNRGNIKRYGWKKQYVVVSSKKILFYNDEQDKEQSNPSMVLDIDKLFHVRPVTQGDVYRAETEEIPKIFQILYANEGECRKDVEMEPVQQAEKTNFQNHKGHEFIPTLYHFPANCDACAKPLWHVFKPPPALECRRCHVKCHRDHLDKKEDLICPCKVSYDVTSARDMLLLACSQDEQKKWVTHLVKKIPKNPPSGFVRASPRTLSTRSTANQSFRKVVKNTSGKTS

SMILES | IC50 ([1]; mean ± SEM, ATP 5 µM) [nM] | IC50 [2] [nM] | inhibition at 10 µM ([1]; mean ± SD) [%] | inhibition at 10 µM [2] [%] | further results
O=C1NC2(CCCC2)Nc2cc(-c3ccnc(NC(=O)C4CC4)c3)sc21 [Compound 60, N-(4-(4’-Oxo-3’,4’-dihydro-1’H-spiro[cyclopentane-1,2’-thieno [3,2-d]pyrimidin]-6’-yl)pyridin-2-yl)cyclopropanecarboxamide] | 1360 ± 79 | 7350 |  |  | 
CC(C)C(=O)Nc1cc(-c2cc3c(s2)C(=O)NC(C)(C)N3)ccn1 [Compound 39, N-(4-(2,2-Dimethyl-4-oxo-1,2,3,4-tetrahydrothieno [3,2-d]pyrimidin-6-yl)pyridin-2-yl)isobutyramide] |  |  | 32 | 33 | 
CC1(C)NC(=O)c2sc(-c3ccnc(NC(=O)C4CC4)c3)cc2N1 [Compound 40, N-(4-(2,2-Dimethyl-4-oxo-1,2,3,4-tetrahydrothieno [3,2-d]pyrimidin-6-yl)pyridin-2-yl)-cyclopropanecarboxamide] | 1760 ± 109 | 4380 ± 544 |  |  | 
O=C1NC2(CCOC2)Nc2cc(-c3ccnc(NC(=O)C4CC4)c3)sc21 (stereo not drawn) [Compound 62, N-(4-(4′-Oxo-3′,4,4′,5-tetrahydro-1′H,2H-spiro[furan-3,2′-thieno [3,2-d]pyrimidin]-6′-yl)pyridin-2-yl)cyclopropanecarboxamide] | 2310 ± 131 |  |  | 39 | IC50 [1]: 2300 nM
NC(=O)Nc1cc(-c2cccc(NC(=O)C3CC3)c2)sc1C(N)=O [Compound 58, 5-(3-(Cyclopropanecarboxamido)phenyl)-3-ureidothiophene-2-carboxamide] |  | 422 ± 12 |  |  | 
NC(=O)Nc1cc(-c2ccnc(NC(=O)C3CCC3)c2)sc1C(N)=O [Compound 50, 5-(2-(Cyclobutanecarboxamido)pyridin-4-yl)-3-ureidothiophene-2-carboxamide] |  |  |  | < 10 | inhibition at 1 µM ([1]; 1 μM (footnote), mean ± SD, read-out: % inh. ROCK-1, tested at inhibitor screening concentration of 1 μM): < 10%
CC(C)C(=O)Nc1cc(-c2cc(NC(N)=O)c(C(N)=O)s2)ccn1 [Compound 48, 5-(2-Isobutyramidopyridin-4-yl)-3-ureidothiophene-2-carboxamide] |  |  | < 10 | < 10 | 
CC1(C)NC(=O)c2sc(-c3ccnc(NC(=O)C4CCC4)c3)cc2N1 [Compound 41, N-(4-(2,2-Dimethyl-4-oxo-1,2,3,4-tetrahydrothieno [3,2-d]pyrimidin-6-yl)pyridin-2-yl)-cyclobutanecarboxamide] |  |  | 48 | 32 | 
NC(=O)Nc1cc(-c2ccnc(NC(=O)C3CC3)c2)sc1C(N)=O [Compound 49, 5-(2-(Cyclopropanecarboxamido)pyridin-4-yl)-3-ureidothiophene-2-carboxamide] |  |  |  | 16 | 
COc1nc(-c2ccnc(NC(=O)C3CC3)c2)sc1C(N)=O [II, reference compound] |  |  |  | 22 | 
